Measured values: the NIST ThermoML archive (doi:10.1021/je800463k)

Assay: mn = molality of the nth substance listed, in mol/kg
Settings: 101 kPa, Liquid; for electrical conductivity: Frequency=0.001 MHz, Alternating current cell with electrodes; for speed of sound: Frequency=2 MHz; for mass density: Pycnometric method

[Mg+2].[O-][Cl+3]([O-])([O-])[O-].[O-][Cl+3]([O-])([O-])[O-] [magnesium perchlorate] + CO
Settings	electrical conductivity [S/m]	mass density [kg/m3]	speed of sound [m/s]	viscosity [mPa·s]
273.15 K, m1 = 0.0542	0.2699	–	1195.2	0.8742
273.15 K, m1 = 0.078	0.4031	–	1201.1	–
273.15 K, m1 = 0.0925	0.4435	–	1203.6	0.9094
273.15 K, m1 = 0.1673	0.6702	–	1212.8	0.9874
273.15 K, m1 = 0.2872	0.9762	–	1226	1.13
273.15 K, m1 = 0.3228	1.058	–	1230.6	1.168
273.15 K, m1 = 0.4313	1.299	–	1245.5	1.329
273.15 K, m1 = 0.6444	1.752	–	1268.2	1.64
273.15 K, m1 = 1.059	2.122	–	1308.9	2.393
273.15 K, m1 = 1.395	2.273	–	1342.5	3.292
273.15 K, m1 = 1.717	2.343	–	1366.9	3.854
273.15 K, m1 = 2	2.355	–	1385.5	4.766
283.15 K, m1 = 0.0542	0.3054	–	1162.7	0.7345
283.15 K, m1 = 0.078	0.4563	–	1167.8	–
283.15 K, m1 = 0.0925	0.5023	–	1170.8	0.768
283.15 K, m1 = 0.1673	0.7619	–	1178.9	0.8318
283.15 K, m1 = 0.2872	1.116	–	1193.9	0.9437
283.15 K, m1 = 0.3228	1.213	–	1197.5	0.9745
283.15 K, m1 = 0.4313	1.497	–	1213.2	1.102
283.15 K, m1 = 0.6444	2.001	–	1236.8	1.342
283.15 K, m1 = 1.059	2.513	–	1278.5	1.928
283.15 K, m1 = 1.395	2.731	–	1313.4	2.608
283.15 K, m1 = 1.717	2.848	–	1336.5	3.023
283.15 K, m1 = 2	2.892	–	1358.1	3.682
293.15 K, m1 = 0.0542	0.3414	–	1128.4	0.6286
293.15 K, m1 = 0.078	0.5074	–	1134.9	–
293.15 K, m1 = 0.0925	0.5615	–	1137.7	0.6569
293.15 K, m1 = 0.1673	0.854	–	1146	0.7098
293.15 K, m1 = 0.2872	1.253	–	1161.8	0.7995
293.15 K, m1 = 0.3228	1.37	–	1165.4	0.8248
293.15 K, m1 = 0.4313	1.702	–	1181.4	0.9286
293.15 K, m1 = 0.6444	2.209	–	1205.9	1.112
293.15 K, m1 = 1.059	2.926	–	1247.5	1.585
293.15 K, m1 = 1.395	3.221	–	1282.1	2.11
293.15 K, m1 = 1.717	3.39	–	1307.5	2.43
293.15 K, m1 = 2	3.474	–	1329.1	2.923
294 K, m1 = 0.078	–	802.89	–	–
295.3 K, m1 = 0.0925	–	802.82	–	–
296.85 K, m1 = 0.3228	–	829.87	–	–
296.9 K, m1 = 0.2872	–	825.72	–	–
297.7 K, m1 = 0.078	–	799.44	–	–
298 K, m1 = 0.0925	–	800.22	–	–
298.15 K, m1 = 0.0542	0.3599	–	1111.3	0.5841
298.15 K, m1 = 0.078	0.5344	–	1119.1	–
298.15 K, m1 = 0.0925	0.5917	–	1121.2	0.6098
298.15 K, m1 = 0.1673	0.9009	–	1129.8	0.656
298.15 K, m1 = 0.2872	1.332	–	1145.7	0.7391
298.15 K, m1 = 0.3228	1.452	–	1149.1	0.7618
298.15 K, m1 = 0.4313	1.807	–	1165.2	0.856
298.15 K, m1 = 0.6444	2.389	–	1189.2	1.019
298.15 K, m1 = 1.059	3.143	–	1232	1.446
298.15 K, m1 = 1.395	3.48	–	1267.7	1.91
298.15 K, m1 = 1.717	3.683	–	1293.2	2.196
298.15 K, m1 = 2	3.779	–	1314.4	2.624
298.3 K, m1 = 0.1673	–	809.54	–	–
299.45 K, m1 = 0.078	–	797.76	–	–
299.75 K, m1 = 0.3228	–	827.21	–	–
299.8 K, m1 = 0.0925	–	798.59	–	–
299.8 K, m1 = 0.2872	–	823.08	–	–
301.15 K, m1 = 0.078	–	796.1	–	–
301.15 K, m1 = 0.1673	–	806.95	–	–
